This is an account of results in ChEMBL document CHEMBL1201862, “PubChem BioAssay data set” (2004).

Test systems include NCI/ADR-RES; COLO 205; UACC-62; MOLT-4; T47D; MDA-N; NCI-H23; HCT-116; RXF 393; ACHN; TK-10; PC-3; MDA-MB-231; OVCAR-8; UO-31; A498; NCI-H522; HOP-92; Malme-3M; IGROV-1.
Common to all, as to experiment: growth of human tumour cells (NCI), 48 h

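Assay format: 96-well plates, 48-hour exposure. GI50: concentration for 50% inhibition of growth.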 Calls of active or inactive are those of the source. No stated cut-off is given here; in the data, active = GI50 up to about 1.1 µM and inactive = higher.

Take `CC(=O)CSCc1ccccn1`: the GI50 is > 100 µM (inactive) in the experiment on NCI/ADR-RES; > 100 µM (inactive) in the experiment with COLO 205; 31.3 µM (inactive) in the experiment on UACC-62; 20.7 µM (inactive) in the experiment with MOLT-4; 34.8 µM (inactive) in the experiment on T47D; 37.8 µM (inactive) in the experiment on MDA-N. The GI50 in the experiment on NCI-H23 is 62.2 µM (inactive); with HCT-116 it was 45.3 µM (inactive); in the experiment with RXF 393, > 100 µM (inactive); with ACHN, 61.5 µM (inactive); with TK-10, > 100 µM (inactive); with PC-3 it was 33.7 µM (inactive). Besides, the GI50 in the experiment with MDA-MB-231 is 75.9 µM (inactive); in the experiment with OVCAR-8 it was 38.4 µM (inactive); with UO-31, > 100 µM (inactive); in the experiment on A498 it was 51.1 µM (inactive); in the experiment with NCI-H522, 6.9 µM (inactive); in the experiment with HOP-92, 38.6 µM (inactive). Moreover, the GI50 is 4.72 µM (inactive) in the experiment with Malme-3M and 37.8 µM (inactive) in the experiment with IGROV-1.
As for `Cn1c(Sc2ccc(-c3cccnc3)n2C)ccc1-c1cccnc1`, the GI50 is 21.8 µM (inactive) in the experiment on NCI/ADR-RES; 20 µM (inactive) with COLO 205; 14.9 µM (inactive) with UACC-62; 0.353 µM (active) in the experiment with MOLT-4; 16.7 µM (inactive) in the experiment on T47D; 8.57 µM (inactive) with MDA-N. Also, the GI50 was 16.7 µM (inactive) in the experiment on NCI-H23; 8.79 µM (inactive) with HCT-116; 18.5 µM (inactive) in the experiment on RXF 393; 20.2 µM (inactive) with ACHN; 17.3 µM (inactive) in the experiment with TK-10; 15.5 µM (inactive) in the experiment with PC-3. Moreover, the GI50 in the experiment on MDA-MB-231 is 18.2 µM (inactive); in the experiment on OVCAR-8 it was 18.1 µM (inactive); in the experiment with UO-31, 17.5 µM (inactive); with A498, 20.9 µM (inactive); in the experiment with NCI-H522, 10.3 µM (inactive); with HOP-92, 12.9 µM (inactive). Further, the GI50 was 11.1 µM (inactive) in the experiment on Malme-3M and 15 µM (inactive) in the experiment with IGROV-1.
Turning to `N=C(N)SCc1ccc(Cl)c2ccccc12.O=[N+]([O-])c1c(O)c(Cl)cc(Cl)c1Cl`, the GI50 in the experiment with NCI/ADR-RES is 17.9 µM (inactive); in the experiment on COLO 205, 10.6 µM (inactive); in the experiment on UACC-62, 13.5 µM (inactive); in the experiment on MOLT-4 it was 5.09 µM (inactive); in the experiment on T47D, 4.19 µM (inactive); with MDA-N, 11.1 µM (inactive). Moreover, the GI50 in the experiment on NCI-H23 is 12.9 µM (inactive); in the experiment with HCT-116 it was 11.8 µM (inactive); with RXF 393, 7.23 µM (inactive); in the experiment on ACHN, 12.5 µM (inactive); in the experiment with TK-10, 7.67 µM (inactive); in the experiment with PC-3 it was 11.9 µM (inactive). The GI50 in the experiment with MDA-MB-231 is 8.22 µM (inactive); in the experiment on OVCAR-8, 17.7 µM (inactive); in the experiment on UO-31 it was 9.98 µM (inactive); with A498, 9.2 µM (inactive); with NCI-H522, 4.56 µM (inactive); in the experiment with HOP-92, 5.89 µM (inactive). The GI50 was 9.1 µM (inactive) in the experiment with Malme-3M and 13 µM (inactive) in the experiment on IGROV-1.
`C=C(C)c1nc(Oc2ccccc2)nc(Oc2ccccc2)n1`: the GI50 in the experiment on NCI/ADR-RES was 10.9 µM (inactive); in the experiment on COLO 205, 5.42 µM (inactive); with UACC-62, 5.78 µM (inactive); in the experiment on MOLT-4, 0.664 µM (active); with T47D, 5.36 µM (inactive); with MDA-N, 3.5 µM (inactive). For the same molecule, the GI50 with NCI-H23 is 6.64 µM (inactive); with HCT-116, 3.53 µM (inactive); in the experiment on RXF 393, 2.4 µM (inactive); in the experiment with ACHN, 8.63 µM (inactive); with TK-10, 3.72 µM (inactive); in the experiment with PC-3 it was 14.6 µM (inactive). Moreover, the GI50 is 14.1 µM (inactive) in the experiment on MDA-MB-231; 4.8 µM (inactive) in the experiment on OVCAR-8; 17.6 µM (inactive) with UO-31; 17.3 µM (inactive) in the experiment on A498; 1.16 µM (inactive) in the experiment with NCI-H522; 4.93 µM (inactive) in the experiment on HOP-92. Also, the GI50 is 13.9 µM (inactive) in the experiment with Malme-3M and 9.38 µM (inactive) in the experiment on IGROV-1.
For `OCCN(CCO)CCn1cnc2c(NCc3ccccc3)ncnc21`, the GI50 with NCI/ADR-RES, in the experiment with COLO 205, in the experiment with UACC-62, in the experiment with MOLT-4, in the experiment with T47D and in the experiment with MDA-N was > 100 µM (inactive) throughout. Further, the GI50 in the experiment with NCI-H23, in the experiment with HCT-116, in the experiment on RXF 393, in the experiment on ACHN, with TK-10 and in the experiment with PC-3 was > 100 µM (inactive) in each case. The GI50 in the experiment on MDA-MB-231, in the experiment on OVCAR-8, with UO-31, with A498, in the experiment with NCI-H522 and in the experiment with HOP-92 was > 100 µM (inactive) in each case. In addition, the GI50 in the experiment with Malme-3M and in the experiment with IGROV-1 was > 100 µM (inactive) throughout.
In the case of `CN(CCNC(=O)c1cn(C)c2c1ccc1cc(Cl)c(Cl)cc12)CCNC(=O)c1cn(C)c2c1ccc1cc(Cl)c(Cl)cc12`, the GI50 with NCI/ADR-RES is 2.26 µM (inactive); in the experiment on COLO 205, 1.64 µM (inactive); in the experiment with UACC-62, 1.95 µM (inactive); in the experiment on MOLT-4, 0.5 µM (active); in the experiment on T47D, 1.93 µM (inactive); with MDA-N it was 2.29 µM (inactive). Moreover, the GI50 with NCI-H23 was 5.22 µM (inactive); with HCT-116 it was 1.94 µM (inactive); in the experiment on RXF 393 it was 1.42 µM (inactive); in the experiment on ACHN it was 1.92 µM (inactive); in the experiment with TK-10, 3.71 µM (inactive); in the experiment with PC-3, 1.7 µM (inactive). The GI50 in the experiment with MDA-MB-231 was 1.75 µM (inactive); in the experiment with OVCAR-8 it was 1.79 µM (inactive); in the experiment with UO-31, 1.72 µM (inactive); in the experiment on A498, 3.82 µM (inactive); with NCI-H522, 1.97 µM (inactive); with HOP-92, 2.17 µM (inactive). For the same molecule, the GI50 was 7.83 µM (inactive) with Malme-3M and 1.53 µM (inactive) with IGROV-1.
Turning to `CN(C)c1ccc(/N=N/c2ccccn2)cc1`, the GI50 with NCI/ADR-RES was 5.04 µM (inactive); in the experiment on COLO 205, 6.58 µM (inactive); in the experiment with UACC-62, 33.4 µM (inactive); in the experiment with MOLT-4 it was 4.17 µM (inactive); in the experiment on T47D, 11.2 µM (inactive); in the experiment with MDA-N, 33.7 µM (inactive). Moreover, the GI50 in the experiment with NCI-H23 is 14.2 µM (inactive); in the experiment with HCT-116, 6.67 µM (inactive); in the experiment on RXF 393, > 100 µM (inactive); in the experiment with ACHN it was 31.8 µM (inactive); with TK-10, 35.7 µM (inactive); with PC-3, 3.97 µM (inactive). Moreover, the GI50 in the experiment on MDA-MB-231 was 20.8 µM (inactive); in the experiment with OVCAR-8, 38.9 µM (inactive); with UO-31, 24.1 µM (inactive); in the experiment with A498, 22.1 µM (inactive); with NCI-H522 it was 38.7 µM (inactive); with HOP-92 it was 69.8 µM (inactive). For the same molecule, the GI50 in the experiment with Malme-3M is 22.6 µM (inactive); in the experiment with IGROV-1, 5.93 µM (inactive).
In the case of `COC(=O)c1c(C)cccc1/C=C1/Cc2c(C)cccc2C1=O`, the GI50 was > 100 µM (inactive) with NCI/ADR-RES; > 10 µM (inactive) with COLO 205; > 100 µM (inactive) with UACC-62; > 100 µM (inactive) with MOLT-4; 50.8 µM (inactive) in the experiment with T47D; > 100 µM (inactive) with MDA-N. Further, the GI50 in the experiment with NCI-H23 was > 100 µM (inactive); in the experiment with HCT-116, > 100 µM (inactive); in the experiment with RXF 393, 25.4 µM (inactive); with ACHN it was 86.7 µM (inactive); with TK-10, > 100 µM (inactive); with PC-3 it was > 100 µM (inactive). For the same molecule, the GI50 is > 100 µM (inactive) in the experiment on MDA-MB-231; > 100 µM (inactive) in the experiment with OVCAR-8; > 100 µM (inactive) in the experiment with UO-31; 88.9 µM (inactive) in the experiment on A498; > 100 µM (inactive) in the experiment with NCI-H522; 58.1 µM (inactive) with HOP-92. Further, the GI50 in the experiment on Malme-3M and in the experiment on IGROV-1 was > 100 µM (inactive) each time.
As to `O=C1/C(=C/c2ccc(Cl)cc2)CCC1CN1CCOCC1` (stereo not given), the GI50 in the experiment with NCI/ADR-RES is 4.88 µM (inactive); with COLO 205, 7.8 µM (inactive); in the experiment with UACC-62 it was 5.51 µM (inactive); in the experiment on MOLT-4 it was 1.12 µM (inactive); with T47D it was 0.678 µM (active); with MDA-N, 6.46 µM (inactive). Also, the GI50 with NCI-H23 was 9.14 µM (inactive); in the experiment with HCT-116, 4.2 µM (inactive); in the experiment with RXF 393 it was 3.76 µM (inactive); in the experiment on ACHN, 11.2 µM (inactive); with TK-10 it was 7.36 µM (inactive); in the experiment with PC-3, 6.19 µM (inactive). For the same molecule, the GI50 in the experiment with MDA-MB-231 is 3.83 µM (inactive); in the experiment with OVCAR-8, 6.68 µM (inactive); with UO-31, 9.08 µM (inactive); in the experiment on A498, 19.6 µM (inactive); with NCI-H522, 1.81 µM (inactive); in the experiment with HOP-92 it was 3.96 µM (inactive). Also, the GI50 in the experiment on Malme-3M is 6.52 µM (inactive); in the experiment on IGROV-1, 6.32 µM (inactive).
With `CNC=O`, the GI50 with NCI/ADR-RES was > 10000 µM (inactive); in the experiment on COLO 205 it was > 10000 µM (inactive); with UACC-62 it was > 8090 µM (inactive); with MOLT-4 it was > 10000 µM (inactive); in the experiment with T47D it was > 10000 µM (inactive); in the experiment with MDA-N it was > 10000 µM (inactive). Also, the GI50 in the experiment with NCI-H23, in the experiment on HCT-116, in the experiment with RXF 393, with ACHN, in the experiment on TK-10 and in the experiment with PC-3 was > 10000 µM (inactive) each time. The GI50 is > 10000 µM (inactive) in the experiment with MDA-MB-231; > 10000 µM (inactive) with OVCAR-8; > 10000 µM (inactive) in the experiment with UO-31; > 9710 µM (inactive) in the experiment with A498; > 10000 µM (inactive) in the experiment on NCI-H522; > 9530 µM (inactive) in the experiment with HOP-92. In addition, the GI50 with Malme-3M and in the experiment on IGROV-1 was > 10000 µM (inactive) throughout.
